Common to all, as to assay: NCI tumour cell line growth inhibition, 48 h
The test system of experiment [1] is A549 NSCLC.
For experiment [2], the system named is ACHN renal.
The test system of experiment [3] is COLO 205 colon.
Experiment [4] relates to DLD-1 colon.
The subject of experiment [5] is DMS 273 small cell lung.
The test system of experiment [6] is HOP-62 NSCLC.
Experiment [7] deals with M19-MEL melanoma.
Experiment [8] deals with SK-MEL-2 melanoma.
For experiment [9], the system named is SR leukemia.
In experiment [10] the test system is MCF7 breast.

Values joined by “and” are separate entries in the source; they are usually repeats but may differ in a detail not shown here. Identical values can stand only once.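 How tested: cells in 96-well plates exposed to compound for 48 hours at five concentrations. GI50 = concentration required for 50% inhibition of growth. TGI: concentration producing complete growth inhibition.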

With `Cc1cc(Cl)cc2c1NC(=O)C2(O)CC(=O)c1ccc(Br)cc1` (stereo not drawn), the TGI in experiment [1], in experiment [2], in experiment [3], in experiment [4], in [5] and in [6] was over 100 µM in each case. Further, the TGI is over 55 µM in [7] and over 100 µM in experiment [8].

On to `CCCCNS(=O)(=O)c1ccc(-c2ccc3c(c2)-c2ccc(S(=O)(=O)NCCCC)cc2S3(=O)=O)cc1`, for which the TGI in experiment [1] was 57.3 µM; in experiment [2] it was over 100 µM; in experiment [3] it was over 100 µM; in [4] it was over 100 µM; in [5] it was over 100 µM; in experiment [6], 37.3 µM. Besides, the results for the TGI in [7], in experiment [8] and in experiment [9] were over 100 µM, 87.9 µM and over 100 µM, respectively.

Turning to `CCOC(=O)[C@@]12C(C)=CC(=O)O[C@]1(C)C1C(=O)NC(=O)C12` (stereo partly drawn), the TGI in experiment [1], in [2], in experiment [3], in [4], in experiment [5] and in experiment [6] was over 100 µM each time. The TGI in experiment [8] is over 100 µM.

Turning to `O=C(O)c1c2c(cc3c(=O)c4ccccc4[nH]c13)CCCC2`, the TGI in [1], in experiment [2], in [3], in experiment [5], in experiment [6] and in [7] was over 100 µM each time. The TGI in [8] and in experiment [9] was over 100 µM each time.

As to `CCCCCCCC(=O)[O-].CCCCCCCC(=O)[O-].N.N.N.N.[Co+3].[O-][Cl+3]([O-])([O-])[O-]`, the GI50 was over 100 µM in experiment [1]; over 100 µM in experiment [2]; over 100 µM in experiment [3]; over 100 µM in experiment [4]; over 100 µM in [8]; 69.9 µM in [9]. The TGI in experiment [1], in [2], in [3], in experiment [4], in experiment [8] and in experiment [9] was over 100 µM throughout.

As to `Cc1ccc(N2C(=O)/C(=C/c3ccc(N(CCC#N)CCC#N)cc3)N=C2COc2ccc(Cl)cc2Cl)cc1`, the TGI in experiment [1], in [2], in experiment [3], in [4], in experiment [6] and in experiment [8] was over 100 µM in each case. This molecule had a TGI in [9] of over 100 µM.

As for `O=C1C(Cl)=C(Cl)C(=O)N1c1ccc(Cl)c(Cl)c1Cl`, the TGI in experiment [1], in experiment [2], in experiment [3], in [4], in [5] and in experiment [6] was over 100 µM each time. Moreover, the TGI in experiment [7] was over 100 µM; in experiment [8] it was over 100 µM; in experiment [9], 68 µM.

For the molecule `CCCC(O)c1cn(-c2cccc(S(=O)(=O)O)c2)nn1` (stereo not drawn), the TGI in [1], in experiment [2], in experiment [3], in [4], in experiment [5] and in experiment [6] was over 100 µM throughout. For the same molecule, the TGI in [7] and in experiment [8] was over 100 µM in each case.

Turning to `O=C1OC(=O)C23CSCC12C1C=CC3O1` (stereo not drawn), the TGI in [1], in [2], in [3], in [4], in experiment [5] and in experiment [6] was over 100 µM in each case. Moreover, the TGI in [7] and in [8] was over 100 µM each time.

For `CC(=O)OCC1OC(n2c(=O)[nH]c(=O)c3n[nH]nc32)C(OC(C)=O)C(OC(C)=O)C1OC(C)=O` (stereo not drawn), the TGI in [1], in [2], in [3], in experiment [4], in experiment [5] and in [6] was over 100 µM each time. Further, the TGI in [7], in [8] and in experiment [9] was over 100 µM throughout.

As to `COc1cc(Cc2c(C)cc(OC)c3[nH]c4ccccc4c23)cc2c1[nH]c1ccccc12`, the GI50 in experiment [1] is 5.73 µM; in experiment [2], 4.67 µM; in experiment [3], 12 µM; in experiment [4] it was 8.99 µM; in experiment [5], 7.64 µM; in [6], 5.49 µM. Besides, the values for the GI50 in [7], in [8] and in experiment [9] were 9.67 µM, 3.97 µM and 7.77 µM, respectively. Further, the TGI was 16.7 µM in [1]; over 25 µM in [2]; over 25 µM in experiment [3]; over 25 µM in experiment [4]; 21.6 µM in experiment [5]; 11 µM in experiment [6]. The TGI was over 25 µM in [7], 11.6 µM in experiment [8] and over 25 µM in experiment [9].

`Cc1ccc(SSCC(O)C(O)CSSc2ccc(C)cc2)cc1` (stereo not drawn): the TGI in experiment [1] was 35.9 µM and 26.4 µM; in experiment [2], 23.6 µM and 29.3 µM; in [3], 3.75 µM and 27.3 µM; in experiment [4], 32.1 µM and 30 µM; in experiment [5], 14.9 µM and 22.5 µM; in [6], 26.6 µM and 9.98 µM. The TGI in experiment [7] is 25.5 µM and 36.9 µM; in experiment [8] it was 20.5 µM; in [9], 15.7 µM and 23.7 µM. Moreover, the GI50 in experiment [3] is 1.99 µM and 14.2 µM; in experiment [5] it was 4.26 µM and 10.5 µM; in [6] it was 12.5 µM and 3.81 µM.

Turning to `COc1ccc(N2C(=O)[C@@H](N=[N+]=[N-])[C@@H]2[C@H]2COC(C)(C)O2)cc1`, the TGI in [1], in experiment [2], in experiment [3], in experiment [5], in experiment [6] and in experiment [7] was over 100 µM in each case. Moreover, the TGI in experiment [8] and in [9] was over 100 µM in each case.

`CCC(C)(O)c1cn(-c2ccc(Cl)cc2)nn1` (stereo not drawn): the TGI in [1], in experiment [2], in [3], in experiment [4], in experiment [5] and in experiment [6] was over 100 µM each time. The TGI in experiment [7], in [8] and in experiment [9] was over 100 µM in each case.

With `CN1CCN=C1c1nnn(-c2ccc([N+](=O)[O-])cc2)c1-c1ccccc1`, the TGI in experiment [1], in experiment [2], in experiment [3], in experiment [4], in [5] and in [6] was over 100 µM in each case. For the same molecule, the TGI in experiment [7], in experiment [8] and in experiment [9] was over 100 µM each time.

Regarding `CC1=NN(c2ccccc2)C(=O)C12[C@H](c1ccccc1)C2(C#N)C#N` (stereo partly drawn), the TGI in experiment [1] was found to be 31.9 µM; in experiment [2], 21.5 µM; in experiment [3], 4.42 µM; in experiment [4] it was 4.01 µM; in experiment [5], 6.28 µM; in [6] it was 31.1 µM. The TGI in experiment [7] came out at 6.41 µM; in [8], 16.7 µM.

With `CCOC(=O)c1sc2c(C(=O)OCC)n3cc(C)cc(C)c3c2c1O`, the TGI in experiment [1], in [2], in experiment [3], in experiment [4], in [5] and in experiment [7] was over 100 µM each time. In addition, the TGI in experiment [8] and in experiment [9] was over 100 µM throughout.

As to `O=c1c2ccccc2oc2ccccc12` (tested in a mixture with another compound), the TGI was over 100 µM in [1]; over 100 µM in experiment [2]; over 100 µM in experiment [3]; 7.75 µM in experiment [4]; over 100 µM in experiment [5]; over 100 µM in experiment [6]. In experiment [9], the TGI was over 100 µM.

In the case of `COC(=O)C(=O)C(C(=O)C(=O)Nc1ccccc1[N+](=O)[O-])c1nc2ccc([N+](=O)[O-])cc2[nH]c1=O` (stereo not drawn), the TGI in experiment [1], in experiment [2], in experiment [3], in experiment [5], in [7] and in experiment [8] was over 100 µM throughout. In [9], this molecule showed a TGI of over 100 µM.

Regarding `COC(=O)/C(C#N)=C1\CCC(OC)N1C` (stereo not drawn), the TGI in [1], in experiment [2], in experiment [3], in experiment [4], in experiment [5] and in [6] was over 100 µM in each case. In addition, the TGI in experiment [7] and in experiment [8] was over 100 µM each time.

Take `CCCCCCC(=O)C/C(CCC(=O)N(Cc1ccccc1)Cc1ccccc1)=N\NC(N)=O`: the TGI in experiment [1], in [2], in [3], in experiment [5], in experiment [6] and in [7] was over 100 µM in each case. In addition, the TGI in experiment [8] and in experiment [9] was over 100 µM in each case.

Consider `Brc1cc(C2OCCCO2)ccc1OCc1ccccc1`, for which the TGI in experiment [1] is over 100 µM; in experiment [2], over 100 µM; in experiment [3], 56.9 µM; in experiment [4], over 100 µM; in experiment [5], over 100 µM; in experiment [6] it was over 100 µM. Moreover, the TGI in [7] and in [8] was over 100 µM in each case.

Regarding `CC(C)C[C@H](NC(=O)Cn1cccc(CNC(=O)c2ccccc2)c1=O)B(O)O`, the GI50 in experiment [1] was 4.54 µM; in experiment [2], 0.626 µM; in [3] it was 1.65 µM; in [6], 1.21 µM; in experiment [10], 0.409 µM; in experiment [8] it was 0.384 µM. Moreover, in experiment [9], the GI50 was 0.304 µM. Moreover, the TGI was over 100 µM in experiment [1]; over 100 µM in [2]; 97.8 µM in experiment [3]; 6.38 µM in experiment [6]; over 100 µM in experiment [10]; 2.79 µM in experiment [8]. The TGI in [9] is over 100 µM.

Turning to `COc1cc(Cl)c(CC(=O)c2c[nH]c3ccccc23)cc1OC`, the TGI is over 100 µM in [1]; over 100 µM in [2]; over 100 µM in experiment [3]; 28.7 µM in experiment [6]; over 100 µM in [10]; over 100 µM in experiment [8]. In addition, the TGI in experiment [9] was over 100 µM.

Take `COc1cc(S(=O)(=O)Nc2nc(-c3ccc(N4C(=O)C(C)SC4c4ccccc4O)cc3)cs2)ccc1Cl` (stereo not drawn): the GI50 in [1] is 39.7 µM; in experiment [2], 42.7 µM; in [3], 40.6 µM; in experiment [6] it was 59.4 µM; in experiment [10], 49 µM; in [8], 38.7 µM. Further, the GI50 in experiment [9] was 43.3 µM. Also, the TGI in experiment [1], in experiment [2], in experiment [3], in experiment [6], in experiment [10] and in experiment [8] was over 100 µM each time. The molecule also displayed a TGI in experiment [9] of over 100 µM.

On to `O=c1cc(-c2ccccc2)[nH]c2c1CCCC2`, for which the GI50 in [1] is 4.55 µM; in experiment [2] it was 11.6 µM; in [3], 1.99 µM; in experiment [6] it was 4.51 µM; in [10], 1.14 µM; in experiment [8], 4.19 µM. The GI50 in experiment [9] is 0.835 µM. Moreover, the TGI in [1] was over 100 µM; in experiment [2], over 100 µM; in experiment [3] it was 6.42 µM; in experiment [6], over 100 µM; in experiment [10] it was over 100 µM; in experiment [8], over 100 µM. Moreover, the TGI in experiment [9] is over 100 µM.

Turning to `O=C1NC(=O)C(c2cccc(Cl)c2)=C1Nc1ccc(Cl)c(C(=O)O)c1`, the GI50 in experiment [1], in experiment [2], in [3], in experiment [6], in experiment [10] and in [8] was over 25 µM each time. Moreover, in experiment [9], the GI50 was over 25 µM. The TGI in experiment [1], in [2], in experiment [3], in [6], in experiment [10] and in [8] was over 25 µM throughout. The same molecule registered a TGI in experiment [9] of over 25 µM.

Values taken from PubChem BioAssay (NCI).
